According to US20240174618A1, “SUBSTITUTED (2-HETEROARYLOXYPHENYL)SULFONATES, SALTS THEREOF AND THEIR USE AS HERBICIDAL AGENTS” (Bayer Aktiengesellschaft, priority 2021, published 2024):

Columns and labels:
Assay type in all cases: in vivo
[1] = tested on: Amaranthus retroflexus (AMARE); experiment: C. Herbicidal pre-emergence efficacy, AMARE; details: scored after about 3 weeks
Text: (§1) Seeds of monocotyledonous and dicotyledonous weed plants and crop plants were placed in plastic or organic planting pots and covered with soil. The compounds of the invention, formulated in the form of wettable powders (WP) or as emulsion concentrates (EC), were then applied to the surface of the covering soil as aqueous suspension or emulsion with addition of 0.5% additive at a water application rate equivalent to 600 l/ha (converted). After the treatment, the pots were placed in a greenhouse and kept under good growth conditions for the test plants. After about 3 weeks, the efficacy of the preparations was scored visually in comparison with untreated controls as percentages. For example, • 100% efficacy=plants have died, • 0% efficacy=like untreated control plants.
(§2) Tables C1a to C14b below show the effects of selected compounds of the general formula (I) according to table 1 on various harmful plants at an application rate corresponding to 320 g/ha or less, which were obtained by the experimental procedure mentioned above.

[2] = tested on: Zea mays (ZEAMX); experiment: D. Pre-emergence effect on useful plants, ZEAMX; details: useful plant
Text: as §1
(§3) Tables D1a to D5b below show the effects of selected compounds of the general formula (I) according to table 1 on various useful plants at an application rate corresponding to 320 g/ha or less, which were obtained by the experimental procedure mentioned above.

[3] = tested on: Triticum aestivum (TRZAS); experiment: D. Pre-emergence effect on useful plants, TRZAS; details: useful plant
Text: as §1, §3

[4] = tested on: Amaranthus retroflexus (AMARE); experiment: E. Herbicidal post-emergence efficacy, AMARE
Protocol: (§4) Seeds of monocotyledonous and dicotyledonous weeds and crop plants were placed in sandy loam in plastic or organic planting pots, covered with soil and cultivated in a greenhouse under controlled growth conditions. 2 to 3 weeks after sowing, the test plants were treated at the one-leaf stage. The compounds of the invention, formulated in the form of wettable powders (WP) or as emulsion concentrates (EC), were then sprayed onto the green parts of the plants as aqueous suspension or emulsion with addition of 0.5% additive at a water application rate of 600 l/ha (converted). After the test plants had been kept in the greenhouse under optimum growth conditions for about 3 weeks, the activity of the preparations was rated visually in comparison to untreated controls.
(§5) For example, • 100% efficacy=plants have died, • 0% action=like untreated control plants.
(§6) Tables E1a to E12b below show the effects of selected compounds of the general formula (I) according to table 1 on various harmful plants at an application rate corresponding to 320 g/ha or less, which were obtained by the experimental procedure mentioned above.

[5] = tested on: Veronica persica (VERPE); experiment: E. Herbicidal post-emergence efficacy, VERPE
Protocol: as §4, §5, §6

[6] = tested on: Viola tricolor (VIOTR); experiment: E. Herbicidal post-emergence efficacy, VIOTR
Protocol: as §4, §5, §6

[7] = tested on: Kochia scoparia (KCHSC); experiment: E. Herbicidal post-emergence efficacy, KCHSC
Protocol: as §4, §5, §6

[8] = tested on: Zea mays (ZEAMX); experiment: F. Post-emergence effect on useful plants, ZEAMX; details: useful plant
Protocol: as §4, §5
(§7) Tables F1a to F4 below show the effects of selected compounds of the general formula (I) according to table 1 on various useful plants at an application rate corresponding to 320 g/ha or less, which were obtained by the experimental procedure mentioned above.

[9] = tested on: Triticum aestivum (TRZAS); experiment: F. Post-emergence effect on useful plants, TRZAS; details: useful plant
Protocol: as §4, §5, §7

[10] = tested on: Digitaria sanguinalis (DIGSA); experiment: C. Herbicidal pre-emergence efficacy, DIGSA; details: scored after about 3 weeks
Text: as §1, §2

[11] = tested on: Echinochloa crus-galli (ECHCG); experiment: C. Herbicidal pre-emergence efficacy, ECHCG; details: 320 g/ha, scored after about 3 weeks
Text: as §1, §2

[12] = tested on: Lolium rigidum (LOLRI); experiment: C. Herbicidal pre-emergence efficacy, LOLRI; details: 320 g/ha, scored after about 3 weeks
Text: as §1, §2

[13] = tested on: Setaria viridis (SETVI); experiment: C. Herbicidal pre-emergence efficacy, SETVI; details: 320 g/ha, scored after about 3 weeks
Text: as §1, §2

[14] = tested on: Veronica persica (VERPE); experiment: C. Herbicidal pre-emergence efficacy, VERPE; details: 320 g/ha, scored after about 3 weeks
Text: as §1, §2

[15] = tested on: Viola tricolor (VIOTR); experiment: C. Herbicidal pre-emergence efficacy, VIOTR
Text: as §1, §2

[16] = tested on: Kochia scoparia (KCHSC); experiment: C. Herbicidal pre-emergence efficacy, KCHSC; details: application rate 320 g/ha
Text: as §1, §2

[17] = tested on: Abutilon theophrasti (ABUTH); experiment: E. Herbicidal post-emergence efficacy, ABUTH; details: application rate 320 g/ha
Protocol: as §4, §5, §6

[18] = tested on: Echinochloa crus-galli (ECHCG); experiment: E. Herbicidal post-emergence efficacy, ECHCG; details: application rate 320 g/ha
Protocol: as §4, §5, §6

[19] = tested on: Pharbitis purpurea (PHBPU); experiment: E. Herbicidal post-emergence efficacy, PHBPU; details: application rate 320 g/ha
Protocol: as §4, §5, §6

Row | SMILES | Pre-emergence efficacy against AMARE ([1]; 320 g/ha) [%] | Pre-emergence efficacy against ZEAMX in % ([2]; application rate 80 g/ha) [%] | Post-emergence efficacy against AMARE in % ([4]; application rate 80 g/ha) [%] | Post-emergence efficacy against AMARE in % ([4]; application rate 320 g/ha) [%] | Post-emergence efficacy against VERPE in % ([5]; application rate 80 g/ha) [%] | Post-emergence efficacy against VERPE in % ([5]; application rate 320 g/ha) [%] | Post-emergence efficacy against VIOTR in % ([6]; application rate 320 g/ha) [%] | Post-emergence efficacy against KCHSC in % ([7]; application rate 320 g/ha) [%] | Post-emergence efficacy against ZEAMX in % ([8]; application rate 80 g/ha) [%] | Post-emergence efficacy against ZEAMX in % ([8]; application rate 320 g/ha) [%] | Post-emergence efficacy against TRZAS in % ([9]; application rate 80 g/ha) [%] | Post-emergence efficacy against TRZAS in % ([9]; application rate 320 g/ha) [%] | further results
1 | N#Cc1cccc(Oc2ncc(Cl)cn2)c1OS(=O)(=O)CCC(F)(F)F [Example I-82] | 80 | 0 | 90 | 100 | 100 | 100 | 80 | 90 | 0 | 20 | 0 | 0 | Pre-emergence efficacy against TRZAS in % ([3]; application rate 80 g/ha): 0%; Pre-emergence efficacy against TRZAS in % ([3]; application rate 320 g/ha): 0%; Post-emergence efficacy against VIOTR in % ([6]; application rate 80 g/ha): 80%; Post-emergence efficacy against KCHSC in % ([7]; application rate 80 g/ha): 90%
2 | Cc1cccc(Oc2ncc(Cl)cn2)c1OS(=O)(=O)CC=C(Cl)Cl [Example I-83] | 100 | 0 | 90 | 100 | 80 | 100 | 100 | 80 | 10 | 20 | 0 | 20 | Pre-emergence efficacy against AMARE ([1]; 80 g/ha): 80%; Pre-emergence efficacy against DIGSA ([10]; 80 g/ha): 80%; Pre-emergence efficacy against DIGSA ([10]; 320 g/ha): 100%; Pre-emergence efficacy against ECHCG [11]: 90%; Pre-emergence efficacy against LOLRI [12]: 80%; Pre-emergence efficacy against SETVI [13]: 100%; Pre-emergence efficacy against VERPE [14]: 90%; Pre-emergence efficacy against VIOTR in % ([15]; application rate 80 g/ha): 90%; Pre-emergence efficacy against VIOTR in % ([15]; application rate 320 g/ha): 100%; Pre-emergence efficacy against KCHSC in % [16]: 80%; Pre-emergence efficacy against ZEAMX in % ([2]; application rate 320 g/ha): 0%; Post-emergence efficacy against ABUTH in % [17]: 80%; Post-emergence efficacy against ECHCG in % [18]: 80%; Post-emergence efficacy against PHBPU in % [19]: 100%
